One experiment has as its target c-fms (Homo sapiens (Human), UniProt P07333). As to the kind of experiment: Autophosphorylation, fluorescence polarization competition immunoassay for c-fms inhibition. To be noted: averages of three independent measurements; read-out: 1 nM c-fms; peptide Pi assay IC-50. Type of experiment: biochemical. As to the method: Fluorescence Polarization Competition Immunoassay
The assay buffer used was 100 mM 4-(2-hydroxyethyl)piperazine 1-ethanesulfonic acid (HEPES), pH 7.5, 1 mM 1,4-dithio-DL-threitol (DTT), 0.01% (v/v) Tween-20. Compounds were diluted in assay buffer containing 4% dimethylsulfoxide (DMSO) just prior to the assay. […] The kinase reaction was initiated by adding 2 μL of 5 mM ATP (Sigma) in assay buffer. […] Control reactions were ran in each plate: in positive and negative control wells, assay buffer (made 4% in DMSO) was substituted for the compound; in addition, positive control wells received 1.2 μL of 50 mM ethylenediaminetetraaceticacid (EDTA).
The plates were incubated at room temperature for 45 min. At the end of the incubation, the reaction was quenched with 1.2 μL of 50 mM EDTA (EDTA was not added to the positive control wells at this point; see above). Following a 5-min incubation, each well received 10 μL of a 1:1:3 mixture of anti-phosphotyrosine antibody, 10×, PTK green tracer, 10× (vortexed), FP dilution buffer, respectively (all from PanVera, cat. # P2837). The plate was covered, incubated for 30 min at room temperature and the fluorescence polarization was read on the Analyst. The instrument settings were: 485 nm excitation filter; 530 nm emission filter; Z height: middle of well; G factor: 0.93. […] The reported IC50 values are averages of three independent measurements.

For experiment [1], the system named is mouse bone-marrow derived macrophages (BMDM). As to the kind of experiment: CSF-1-driven mouse bone-marrow derived macrophages proliferation assay (BrDU incorporation). Type of experiment: cell-based. To be noted: 30 hrs culture, read-out: mCSF driven proliferation BMDM (Mouse) IC-50. As to the method:
CSF-1-Driven Mouse Bone-Marrow Derived Macrophages Assay
Macrophages are derived by culturing mouse bone marrow in alpha-MEM supplemented with 10% FCS and 50 ng/ml recombinant mouse CSF-1 in bacteriologic dishes. On the sixth day, macrophages are detached from dishes, washed, and resuspended to 0.05 million cells/ml in alpha-MEM containing 10% FCS. One hundred ul of cell suspension are distributed per well into 96 well culture plates. Wells are further supplemented with the addition of 50 ul media containing 15 ng/ml CSF-1, 3 uM Indomethacin, and 3× of a dilution series of test compounds. The cells are cultured for 30 hrs at 37 degrees and 5% CO2. During the final six hours, cultures are supplemented with an additional 30 ul of media containing a 1:500 dilution of bromodeoxyuridine (BrDU). At the end of the culture period, the plates are spun at 1000 RPM for 1 minute and 130 ul of media is removed with a pipet and replaced with 150 ul of fixative solution for 1 hour @ room temperature. The fixative is then dispelled from the plates and the plates allowed to air dry. Incorporation of BrDU into the fixed, dried cells is quantified using a specific ELISA.

Chain of c-fms (P07333 20-972): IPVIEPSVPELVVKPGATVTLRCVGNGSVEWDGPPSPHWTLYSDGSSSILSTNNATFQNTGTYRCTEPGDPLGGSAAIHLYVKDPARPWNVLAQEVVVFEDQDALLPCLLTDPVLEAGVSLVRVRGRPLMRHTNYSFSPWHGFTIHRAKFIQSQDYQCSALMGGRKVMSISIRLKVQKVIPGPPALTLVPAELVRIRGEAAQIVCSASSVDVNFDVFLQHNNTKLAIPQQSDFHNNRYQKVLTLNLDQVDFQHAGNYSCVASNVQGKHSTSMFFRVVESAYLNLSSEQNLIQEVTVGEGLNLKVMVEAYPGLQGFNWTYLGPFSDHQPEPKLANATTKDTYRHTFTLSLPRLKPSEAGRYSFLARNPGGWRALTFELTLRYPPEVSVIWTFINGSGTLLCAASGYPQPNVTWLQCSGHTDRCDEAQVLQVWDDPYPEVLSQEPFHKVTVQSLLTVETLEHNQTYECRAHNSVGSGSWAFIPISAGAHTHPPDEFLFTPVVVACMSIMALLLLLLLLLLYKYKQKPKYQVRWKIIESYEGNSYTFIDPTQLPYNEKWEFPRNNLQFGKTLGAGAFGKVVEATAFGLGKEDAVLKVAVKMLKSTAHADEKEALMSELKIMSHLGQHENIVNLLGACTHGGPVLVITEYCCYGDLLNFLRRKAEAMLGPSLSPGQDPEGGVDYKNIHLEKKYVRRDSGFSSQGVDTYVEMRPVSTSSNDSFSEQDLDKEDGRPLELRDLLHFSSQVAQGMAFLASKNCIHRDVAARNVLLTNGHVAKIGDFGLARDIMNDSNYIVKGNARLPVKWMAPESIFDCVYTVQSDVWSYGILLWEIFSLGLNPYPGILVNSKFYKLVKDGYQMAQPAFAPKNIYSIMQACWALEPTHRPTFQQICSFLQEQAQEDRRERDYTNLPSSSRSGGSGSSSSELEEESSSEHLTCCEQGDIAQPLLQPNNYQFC

Take `CN1CCN(C2CCC(c3ccc(NC(=O)c4nc(C#N)c[nH]4)c(C4=CCC(C)(C)CC4)c3)CC2)CC1` (stereo not drawn) [Example 28, 4-Cyano-1H-imidazole-2-carboxylic acid {2-(4,4-dimethyl-cyclohex-1-enyl)-4-[4-(4-methyl-piperazin-1-yl)-cyclohexyl]-phenyl}-amide]: the figures for the IC50 (at c-fms; in experiment [1]) were 0.99 nM and 10.2 nM, respectively.

As for `CC1(C)CC=C(c2cc([C@]3(O)CC[C@@H](C(=O)O)CC3)ccc2NC(=O)c2ncc(C#N)[nH]2)CC1` [Example 2, 4-[4-[(5-Cyano-1H-imidazole-2-carbonyl)-amino]-3-(4,4-dimethyl-cyclohex-1-enyl)-phenyl]-cis-4-hydroxy-cyclohexanecarboxylic acid], the IC50 on c-fms was found to be 0.65 nM; in experiment [1] it was 87 nM.

Turning to `CC1(C)CC=C(c2cc(C3CCC(N4CCOCC4)CC3)ccc2NC(=O)c2nc(C#N)c[nH]2)CC1` (stereo not drawn) [Example 27, 4-Cyano-1H-imidazole-2-carboxylic acid [2-(4,4-dimethyl-cyclohex-1-enyl)-4-(4-morpholin-4-yl-cyclohexyl)-phenyl]-amide], the IC50 on c-fms was found to be 1.9 nM; in experiment [1] it was 16 nM.

For the molecule `CC1(C)CC=C(c2cc(C3(C#N)CCCCC3)ccc2NC(=O)c2nc(C#N)c[nH]2)CC1` [Example 14, 4-Cyano-1H-imidazole-2-carboxylic acid [4-(1-cyano-cyclohexyl)-2-(4,4-dimethyl-cyclohex-1-enyl)-phenyl}-amide], the results for the IC50 (at c-fms; in experiment [1]) were 20 nM and 150 nM, respectively.

For `CC1(C)CC=C(c2cc(C3(C#N)CC3)ccc2NC(=O)c2nc(C#N)c[nH]2)CC1` [Example 4, 4-Cyano-1H-imidazole-2-carboxylic acid [4-(1-cyano-cyclopropyl)-2-(4,4-dimethyl-cyclohex-1-enyl)-phenyl]-amide], the IC50 on c-fms is 9.5 nM; in experiment [1] it was 99 nM.

On to `CC1(C)CC=C(c2cc(C3(O)CCCC3)ccc2NC(=O)c2nc(C#N)c[nH]2)CC1` [Example 3, 4-Cyano-1H-imidazole-2-carboxylic acid [2-(4,4-dimethyl-cyclohex-1-enyl)-4-(1-hydroxy-cyclopentyl)-phenyl]-amide], for which the IC50 at c-fms came out at 2.3 nM; in experiment [1] it was 11.7 nM.

Turning to `CC1(C)CC=C(c2cc([C@]3(O)CC[C@@H](N4CCOCC4)CC3)ccc2NC(=O)c2nc(C#N)c[nH]2)CC1` [Example 44, 4-Cyano-1H-imidazole-2-carboxylic acid [2-(4,4-dimethyl-cyclohex-1-enyl)-4-(cis-1-hydroxy-cis-4-morpholin-4-yl-cyclohexyl)-phenyl]-amide], the IC50 in experiment [1] came out at 2.8 nM.

In the case of `CC1(C)CC=C(c2cc(C3(O)CCCCC3)ccc2NC(=O)c2nc(C#N)c[nH]2)CC1` [Example 1, 4-Cyano-1H-imidazole-2-carboxylic acid [2-(4,4-dimethyl-cyclohex-1-enyl)-4-(1-hydroxy-cyclohexyl)-phenyl]-amide], the IC50 came to 5.9 nM at c-fms and 72 nM in experiment [1].

Consider `COCCNC1(c2ccc(NC(=O)c3nc(C#N)c[nH]3)c(C3=CCC(C)(C)CC3)c2)CCCCC1` [Example 43, 4-Cyano-1H-imidazole-2-carboxylic acid {2-(4,4-dimethyl-cyclohex-1-enyl)-4-[1-(2-methoxy-ethylamino)-cyclohexyl]-phenyl}-amide], for which the IC50 on c-fms is 2.9 nM; in experiment [1], 111 nM.

As for `CC1(C)CC=C(c2cc([C@]3(O)CC[C@H](N4CCOCC4)CC3)ccc2NC(=O)c2nc(C#N)c[nH]2)CC1` [Example 45, 4-Cyano-1H-imidazole-2-carboxylic acid [2-(4,4-dimethyl-cyclohex-1-enyl)-4-(cis-1-hydroxy-trans-4-morpholin-4-yl-cyclohexyl)-phenyl]-amide], in experiment [1], the IC50 was 8.5 nM.

These data come from US9403804B2, “Inhibitors of c-fms kinase” (Janssen Pharmaceutica NV, priority 2006, dated 2016).
